{"source": "paper PMC10375895", "about": "“Repurposed Fenoprofen Targeting SaeR Attenuates Staphylococcus aureus Virulence in Implant-Associated Infections” (ACS Central Science, 2023)", "target": "SaeR (response regulator) (Staphylococcus aureus, UniProt Q2G2G2)", "sequence (Q2G2G2 whole entry)": "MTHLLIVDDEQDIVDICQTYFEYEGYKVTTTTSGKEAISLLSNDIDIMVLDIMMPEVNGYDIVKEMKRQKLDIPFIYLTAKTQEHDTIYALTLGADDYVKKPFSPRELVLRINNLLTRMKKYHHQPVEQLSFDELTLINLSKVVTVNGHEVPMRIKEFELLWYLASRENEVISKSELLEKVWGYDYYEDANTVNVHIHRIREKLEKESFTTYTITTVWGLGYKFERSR", "assay": "SPR titration with purified SaeR ([…]); EMSA shows loss of hla promoter DNA binding", "data": [{"smiles": "CC(C(=O)O)c1cccc(Oc2ccccc2)c1", "note": "(stereo not shown) [fenoprofen]", "values": [{"measurement": "Kd", "result": 16.5, "unit": "µM"}]}]}
